Results as given in patent US20090311246A1, “Method of Enhancing Remyelination in Demyelinating Diseases of the Central Nervous System” (priority 2008, published 2009).

B1: rMOG: recombinant MOG (protein, UniProt Q16653 30-247, looked up)
Myelin-oligodendrocyte …: GQFRVIGPRHPIRALVGDEVELPCRISPGKNATGMEVGWYRPPFSRVVHLYRNGKDQDGDQAPEYRGRTELLKDAIGEGKVTLRIRNVRFSDEGGFTCFFRDHSYQEEAAMELKVEDPFYWVSPGVLVLLAVLPVLLLQITVGLIFLCLQYRLRGKLRAEIENLHRTFDPHFLRVPCWKITLFVIVPVLGPLVALIICYNWLHRRLAGQFLEELRNPF
B2: MOG Protein: myelin oligodendrocyte glycoprotein (protein, UniProt Q16653 30-247, looked up)
Myelin-oligodendrocyte …: B1 Myelin-oligodendrocyte …
B3: MBP Protein: myelin basic protein (protein, UniProt P02686 1-304, looked up)
Myelin basic protein: MGNHAGKRELNAEKASTNSETNRGESEKKRNLGELSRTTSEDNEVFGEADANQNNGTSSQDTAVTDSKRTADPKNAWQDAHPADPGSRPHLIRLFSRDAPGREDNTFKDRPSESDELQTIQEDSAATSESLDVMASQKRPSQRHGSKYLATASTMDHARHGFLPRHRDTGILDSIGRFFGGDRGAPKRGSGKDSHHPARTAHYGSLPQKSHGRTQDENPVVHFFKNIVTPRTPPPSQGKGRGLSLSRFSWGAEGQRPGFGYGGRASDYKSAHKGFKGVDAQGTLSKIFKLGGRDSRSGSPMARR
B4: Bovine MBP: bovine myelin basic protein (protein)
chain: AAQKRPSQRSKYLASASTMDHARHGFLPRHRDTGILDSLGRFFGSDRGAPKRGSGKDGHHAARTTHYGSLPQKAQGHRPQDENPVVHFFKNIVTPRTPPPSQGKGRGLSLSRFSWGAEGQKPGFGYGGRASDYKSAHKGLKGHDAQGTLSKIFKLGGRDSRSGSPMARR

Columns and labels:
[1] = system: sera from SFV-infected B6 mice; format: binding; details: for Dh / D0 (Ratio): OD of highest day (day 15 or 21) over day 0, SFV-infected sera; for Dh−D0 (difference): OD of highest day minus day 0, SFV-infected sera; for Net change in the levels of antibody (ΔOD), D7-9 / Net change in the levels of antibody (ΔOD), D14-16 / Net change in the levels of antibody (ΔOD), D21-23 / Net change in the levels of antibody (ΔOD), D31-35: SFV-infected mice sera, day 0 OD subtracted; for Net change in the levels of antibody (ΔOD), D7-9: days 7-9 pi; for Net change in the levels of antibody (ΔOD), D14-16: days 14-16 pi; for Net change in the levels of antibody (ΔOD), D21-23: days 21-23 pi; for Net change in the levels of antibody (ΔOD), D31-35: days 31-35 pi; for Reactivity of sera from SFV-infected B6 mice with the antigen in ELISA: vs day 0
Experimental: To measure the antibody response of both WT and γδ KO mice against SFV and two of the peptides of the SFV envelope protein, E2, an indirect ELISA was performed. Sera were pooled from 4-6 SFV-infected WT, and 3 KO, mice on days 0, 7, 14, 21 and 35 pi. Briefly, Immunolon 2HB 96 well microtiter plates (VWR, Bridge Port, N.J.) were coated with 1 μg/well of each antigen in 100 μl/well carbonate buffer overnight at room temperature. After washing, the plates were blocked and serum samples were added. […] After washing, biotinylated goat anti-mouse Igs (BD Pharmingen, Torreyana, Calif.), Strepavidin conjugated to Horse Radish Peroxidase (Vector Laboratories, Burlingame, Calif.), and OPD substrate (Sigma, St. Louis, Mo.) were used, as previously described (4, 9). […] Values were considered to be positive when they were >0.3 OD units and exceeded the mean value plus three standard deviations for antibody response on day 0 pi of mice of the same strain. […]
In some instances day 0 OD values were high, thus making the differences appear small. Therefore, to account for such discrepancy, we also determined the ratio of the highest day (day 15 or 21) over day 0.

[2] = system: Rabbit Anti-SFV polyclonal antibody; assay: Indirect ELISA of rabbit anti-SFV polyclonal IgG against viral and myelin antigens; format: binding; details: for Rabbit Anti-SFV Ab, OD at 490 nm: 10^−2 diluted, indirect ELISA; for Immunoreactivity of IgG fraction of serum from rabbits immunized with UV-inactivated SFV: ELISA; for OD Difference: Rabbit Anti-SFV Ab minus Normal Rabbit Serum
Experimental: The total IgG fraction was commercially prepared (Strategic Biosolutions, Ramona, Calif.) from pooled sera of 3 rabbits immunized once with UV-inactivated SFV (A774 strain) emulsified in CFA and boosted 3 times with antigen in IFA at weeks 3, 5, and 7. The IgG fraction of the pooled antisera was purified by ion-exchange chromatography and contained 8.7 mg IgG/ml of PBS. Antibody activities to SFV and peptides of SFV, to E2, and to recombinant ® MOG and its peptides were confirmed by ELISA. Normal rabbit IgG, isolated from pooled normal rabbit sera by ion-exchange chromatography (Signa Chemical Co., St. Louis, Mo.), was dissolved in saline. Protein concentration was determined by the Bradford assay (Sigma), using normal rabbit IgG as the standard. The IgG solutions were diluted to 3 mg protein/ml in saline and sterilized by passage through a 0.22 μm filter (Millipore Corp., Bedford, Mass.).
To measure the antibody response of both WT and γδ KO mice against SFV and two of the peptides of the SFV envelope protein, E2, an indirect ELISA was performed. Sera were pooled from 4-6 SFV-infected WT, and 3 KO, mice on days 0, 7, 14, 21 and 35 pi. Briefly, Immunolon 2HB 96 well microtiter plates (VWR, Bridge Port, N.J.) were coated with 1 μg/well of each antigen in 100 μl/well carbonate buffer overnight at room temperature. After washing, the plates were blocked and serum samples were added. […] After washing, biotinylated goat anti-mouse Igs (BD Pharmingen, Torreyana, Calif.), Strepavidin conjugated to Horse Radish Peroxidase (Vector Laboratories, Burlingame, Calif.), and OPD substrate (Sigma, St. Louis, Mo.) were used, as previously described (4, 9). […] Values were considered to be positive when they were >0.3 OD units and exceeded the mean value plus three standard deviations for antibody response on day 0 pi of mice of the same strain.
The polyclonal rabbit anti SFV antibody was commercially prepared (Strategic Biosolutions, Ramona, Calif.) from pooled sera of 3 rabbits, immunized once with UV-inactivated SFV (A774 strain) emulsified in CFA and boosted 3 times with antigen in IFA at weeks 3, 5, and 7.

[3] = system: Normal Rabbit Serum; assay: Indirect ELISA of normal rabbit serum/IgG against viral and myelin antigens; format: binding; details: 10^−2 diluted
[4] = system: sera from SFV-infected WT and γδ KO mice; assay: ELISA of sera from SFV-infected WT and γδ KO mice against SFV, E2 peptides, PPD and rMOG; format: binding
[5] = system: B6 mice; details: ref. (4); cited from earlier work

Row | Molecule | Dh / D0 (Ratio) [1] | Dh−D0 (difference) [1] | Net change in the levels of antibody (ΔOD), D7-9 [1] | Net change in the levels of antibody (ΔOD), D14-16 [1] | Net change in the levels of antibody (ΔOD), D21-23 [1] | Net change in the levels of antibody (ΔOD), D31-35 [1] | Reactivity of sera from SFV-infected B6 mice with the antigen in ELISA [1] | Rabbit Anti-SFV Ab, OD at 490 nm [2] [OD] | OD Difference [2] [OD] | Normal Rabbit Serum, OD at 490 nm [3] [OD] | also measured
1 | DEAELPSRISPGKNA [MOG 18-32] | 3.2 | 0.919 | 0.34 ± 0.31 ΔOD | 0.75 ± 0.23 ΔOD | 0.91 ± 0.15 ΔOD | 0.91 ± 0.36 ΔOD | reacted significantly | 0.907 | 0.647 | 0.260 | Immunoreactivity of IgG fraction of serum from rabbits immunized with UV-inactivated SFV [2]: Cross-reactivity
2 | EGVNDNEEGFFSAR [FB, Fibrinopeptide B, 1-14, negative control peptide] | 1.26 | 0.068 | 0.06 ± 0.07 ΔOD | 0.05 ± 0.07 ΔOD | 0.05 ± 0.08 ΔOD | 0.08 ± 0.09 ΔOD |  |  |  |  | 
3 | GKDSHTRTTHYGS [MBP 56-68, mouse MBP 56-68 peptide, mimicked by E2 137-151] | 5.37 | 0.824 | 1.10 ± 0.04 ΔOD | 0.83 ± 0.10 ΔOD | 1.07 ± 0.12 ΔOD | 0.55 ± 0.18 ΔOD | reacted significantly | 0.852 | 0.691 | 0.195 | Immunoreactivity of IgG fraction of serum from rabbits immunized with UV-inactivated SFV [2]: Cross-reactivity
4 | H-IQDTRNAVRACRIQYHHD-OH [E2 115-129, reference compound] | 5.28 | 0.458 | 0.82 ± 0.40 ΔOD | 0.91 ± 0.14 ΔOD | 0.95 ± 0.22 ΔOD | 0.85 ± 0.07 ΔOD | reacted |  |  |  | Net change in the level of antibody, D0 WT ([4]; WT mice, day 0): 0 nano gr; Net change in the level of antibody, D7 WT ([4]; WT mice, day 7 pi, ± SD): 69 ± 29 nano gr; Net change in the level of antibody, D14 WT ([4]; WT mice, day 14 pi, ± SD): 83 ± 16 nano gr; Net change in the level of antibody, D21 WT ([4]; WT mice, day 21 pi, ± SD): 90 ± 20 nano gr; Net change in the level of antibody, D35 WT ([4]; WT mice, day 35 pi, ± SD): 73 ± 14 nano gr; Net change in the level of antibody, D0 KO ([4]; γδ KO mice, day 0): 0 nano gr; Net change in the level of antibody, D7 KO ([4]; γδ KO mice, day 7 pi, ± SD): 65 ± 35 nano gr; Net change in the level of antibody, D14 KO ([4]; γδ KO mice, day 14 pi, ± SD): 34 ± 24 nano gr; Net change in the level of antibody, D21 KO ([4]; γδ KO mice, day 21 pi, ± SD): 55 ± 20 nano gr; Net change in the level of antibody, D35 KO ([4]; γδ KO mice, day 35 pi, ± SD): 29 ± 22 nano gr; Reactivity of sera from SFV-infected γδ KO mice ([4]; γδ KO, sera 1:80): lower, but not significantly different than WT; Histopathology after inoculation with the peptide (literature) [5]: induced vaccuolation in myelin
5 | NH2-MEVGWYRSPFSRVVHLYRNGK-OH (H-MEVGWYRSPFSRVVHLYRNGK-OH) [MOG 35-55, myelin oligodendrocyte glycoprotein (MOG) peptide 35-55] | 5.11 | 0.362 | 055 ± 0.08 ΔOD | 0.78 ± 0.08 ΔOD | 0.82 ± 0.05 ΔOD | 0.78 ± 0.07 ΔOD |  | 0.184 | 0.177 | 0.007 | 
6 | THYGSLPQKSQR (GSGKDSHTRTTH) [MBP 64-75, myelin basic protein peptide 64-75] | 2.93 | 0.375 |  |  |  |  |  |  |  |  | 
7 | B1 |  |  |  |  |  |  |  | 0.359 | 0.146 | 0.213 | Reactivity of sera from both SFV-infected WT and KO groups ([4]; WT and KO, days 7 to 35 pi): twice as the background level
8 | B2 | 4.1 | 0.89 | 0.47 ± 0.21 ΔOD | 0.84 ± 0.18 ΔOD | 0.91 ± 0.11 ΔOD | 0.96 ± 0.07 ΔOD | reacted significantly |  |  |  | 
9 | B3 | 2.42 | 0.967 | 0.53 ± 0.11 ΔOD | 1.04 ± 0.24 ΔOD | 1.12 ± 0.31 ΔOD | 1.00 ± 0.32 ΔOD | reacted significantly |  |  |  | 
10 | B4 |  |  |  |  |  |  |  | 0.622 | 0.339 | 0.283 | 
